Measurements published in paper PMC12228513 (Journal of the American Chemical Society, 2025).

Target: T1, AlnA (Streptomyces sp. CM020, UniProt B6SEG5)
T1 sequence (B6SEG5 1-306): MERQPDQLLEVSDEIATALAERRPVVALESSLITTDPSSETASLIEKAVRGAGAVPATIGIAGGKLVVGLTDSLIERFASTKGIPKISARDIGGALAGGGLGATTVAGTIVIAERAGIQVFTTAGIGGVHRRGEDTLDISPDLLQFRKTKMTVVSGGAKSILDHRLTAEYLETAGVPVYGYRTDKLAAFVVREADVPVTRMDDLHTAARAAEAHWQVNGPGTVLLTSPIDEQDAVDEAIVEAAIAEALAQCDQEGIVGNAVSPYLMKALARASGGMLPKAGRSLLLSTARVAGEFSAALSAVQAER
Test: protein mass spectrometry after NaBH4 trapping
Assay type: binding
Details: covalent; Schiff base at Lys159

O=P(O)(O)OC[C@H]1OC(O)[C@H](O)[C@@H]1O (stereo partly shown) [compound 4, ribose 5-phosphate]
protein mass spectrometry after NaBH4 trapping; tryptic proteolysis: the covalent modification occurred at the highly conserved Lys159 residue in AlnA
